# Test results taken from article PMC8433837, “(+)-Usnic Acid as a Promising Candidate for a Safe and Stable Topical Photoprotective Agent” (Molecules, 2021).
# Read-outs that look alike come from different tables or passages of the source.
# Key:
# [1] = system: HaCaT human skin keratinocytes; experiment: LDH viability test, HaCaT keratinocytes; type: cell-based
# Experimental: (§1) Normal human skin keratinocytes (HaCaT), melanocytes (HEM), and fibroblasts (HDF) were grown at 37 °C in a 5% CO2 atmosphere, with relative humidity, on high-glucose DMEM (HaCaT, HDF), or melanocyte growth medium (HEM), supplemented with 10% fetal bovine serum (FBS) and antibiotics. Before the experiment, cells were seeded onto 96-well plates (1.5 × 10^4 cells/well) for 24 h. Then, the culture medium was replaced with the same medium, containing 2–100 µg/mL of the tested substances, and incubated for 24, 48, or 72 h. LDH release was measured as described previously. Briefly, a proper quantity of a reagent mixture was added to the cell supernatants, and after 30 min the absorbance was measured at 490 nm (the reference wavelength 600 nm) with a BioTek Synergy microplate reader (BioTek Instruments Inc., Winooski, VT, USA). Cytotoxicity was calculated as follows: ((Asample − Acontrol)/(Ama − Acontrol)) × 100; where Asample = the absorbance value for the cells incubated with the tested substances., Acontrol = the absorbance value for untreated, control cells (spontaneous LDH release), and Amax = the absorbance value in Triton-X100-lysed cells (maximum LDH release).
# (§2) Each experiment was performed in triplicate, and the results were presented as mean ± SD.
# [2] = system: Human epidermal melanocytes (HEM); experiment: LDH viability test, HEM melanocytes; type: cell-based; conditions: Melanocyte, HEM melanocytes (remaining cell lines)
# Experimental: as §1, §2
# dermal fibroblasts (HDF) = experiment: LDH viability test, HDF fibroblasts; type: cell-based; conditions: Homo sapiens, Fibroblast, HDF fibroblasts (remaining cell lines)
# Experimental: as §1, §2
# [3] = skin-PAMPA permeability assay; type: in vitro ADME; conditions: for Papp at 2 µg/mL: concentration 2 µg/mL; for Papp at 4 µg/mL: concentration 4 µg/mL
# Experimental: The skin-PAMPA (parallel artificial membrane permeability assay) method was used, as described previously, to determine the permeability of the tested usnic acid enantiomers. The model consists of a two-chamber PAMPA sandwich, with 96 wells each. Before the experiment, the top plate, with the lipid-impregnated skin-mimetic membrane, was hydrated overnight with the hydration solution (200 µL per well). The tested substances were added at concentrations of 2 and 4 µg/mL. Each experiment was repeated at least three times, using six replicates on each plate, and the results were presented as mean ± SD. The amount of permeated active compounds was determined by spectroscopic analysis (Multiskan GO microplate reader, Thermo Scientific MaxQ 4450, Waltham, MA, USA), with a wavelength of 290 nm. For the calibration curve, stock solutions in the range of 12.5–150 µg/mL were prepared.
# The apparent permeability coefficients (Papp) were calculated using the following equation:(1) Papp=−ln(1−CA/Cequilibrium)/S×(1/VD+1/VA)×t where VD = donor volume, VA = acceptor volume, Cequilibrium = equilibrium concentration, Cequilibrium=CD×VD+CA×VA/VD+VA , CD = donor concentration, CA = acceptor concentration, S = membrane area, and t = incubation time (in seconds). Compounds with Papp < 1 × 10^−6 cm/s are classified as having low permeability, and those with Papp > 1 × 10^−6 cm/s as highly permeable compounds.
# [4] = set-up: method as in PMID 24238180; conditions: cited from earlier work
# [5] = Ultraviolet spectroscopy in ethanol solutions; type: physicochemical; conditions: ethanol solution; for E1.1 (λmax): extinction at 1 cm path length and 1% concentration; for ‹E1.1mean›: mean specific extinction 290 to 400 nm
# Experimental: Spectra with a scan range of 250–400 nm were recorded in 30 µM ethanol solutions, in 1 cm path length, with 1.5 mL quartz cuvettes on a U-2800 double-beam spectrophotometer (Hitachi, Tokyo, Japan) controlled using UV Solution version 2.2 software. The molar extinction coefficient at maximum absorption (εmax) of the tested compounds was determined in ethanol as the slope of the linear regression of absorbance vs. the concentration of the tested compound (from 10 to 50 µM). The E1,1 coefficient was calculated using the formula: E1,1=ε[L/mol cm]× 10[g/L]/Mg/mol] × 1[cm] where ‹E1,1›mean value is a mean value of the specific extinction over the spectral range from 290 to 400 nm.
# HaCaT cells = conditions: cited from earlier work
# [6] = set-up: method as in doi:10.1016/S1010-6030(98)00368-2; conditions: three-week exposure, 12 h/day natural sunlight + 12 h/day incubator with light source; cited from earlier work
# [7] = set-up: method as in PMID 28704942; conditions: different test for the evaluation; cited from earlier work
# irradiated guinea pigs = system: irradiated guinea pigs; set-up: method as in earlier work; conditions: cited from earlier work
# HEM cells = system: HEM cells; set-up: method as in PMID 32092663; conditions: cited from earlier work
# human volunteers = system: human volunteers; set-up: method as in PMID 12468208; conditions: versus reference Nivea sun spray (SPF 5); cited from earlier work
# HDF cells = system: HDF cells; set-up: method as in PMID 31282672; conditions: cited from earlier work
# fibroblasts = system: fibroblasts; set-up: method as in PMID 28095330; conditions: previous study; cited from earlier work
compound,measurement,setting,value
CC(=O)C1=C(O)C=C2Oc3c(C(C)=O)c(O)c(C)c(O)c3[C@]2(C)C1=O [(−)-usnic acid],IC50,[1]; 48 h,80.8 µg/mL
same,IC50,[1]; 72 h,70.1 µg/mL
same,IC50,[2],> 100 µg/mL
same,IC50,dermal fibroblasts (HDF),> 100 µg/mL
same,Papp at 2 µg/mL,[3],7.46 ± 1.12 ×10⁻⁶ cm/s
same,Papp at 4 µg/mL,[3],8.28 ± 1.33 ×10⁻⁶ cm/s
dimethicodiethylbenzalmalonate,"E1,1 value",[4],~ 150
"CCCCC(CC)COC(=O)C(C#N)=C(c1ccccc1)c1ccccc1 (centres unmarked) [octocrylene, 2-ethylhexyl 2-cyano-3,3-diphenylacrylate, reference compound]",εmax,[5],13 650 M^−1 cm^−1
same,λmax,[5],302 nm
same,E1.1 (λmax),[5],378
same,‹E1.1mean›,[5],141
"CC(=O)c1c(O)c(C)c(O)c2c1OC1=CC(=O)C(C(C)=O)C(=O)C12C (centres unmarked) [usnic acid, 2,6-diacetyl-7,9-dihydroxy-8,9b-dimethyl-1,3(2H,9bH)-dibenzofurandione]",IC50,HaCaT cells; conversion of the µM value,about 64 µg/mL
same,IC50,HaCaT cells; read-out: IC50,186 ± 4.8 µM
same,stability of methanol solution exposed to light,[6],wholly degraded
same,PF UVA,[7],1.8
same,SPF,[7],3.9
same,SPF as compared to the reference (homosalate),irradiated guinea pigs,two times higher
same,IC50,HEM cells; conversion of the µM value,about 2.4 µg/mL
same,IC50,HEM cells; read-out: IC50,6.9 µM
same,effectiveness in sun protection,human volunteers,comparable to a reference Nivea sun spray
CC(=O)C1=C(O)C=C2Oc3c(C(C)=O)c(O)c(C)c(O)c3[C@@]2(C)C1=O [(+)-usnic acid],εmax,[5],21 120 M^−1 cm^−1
same,λmax,[5],281 nm
same,E1.1 (λmax),[5],613
same,‹E1.1mean›,[5],76
same,IC50,HDF cells; conversion of > 10 µM,about 3.5 µg/mL
same,IC50,HDF cells; read-out: IC50,> 10 µM
same,Papp at 2 µg/mL,[3],7.53 ± 1.25 ×10⁻⁶ cm/s
same,Papp at 4 µg/mL,[3],7.9 ± 0.65 ×10⁻⁶ cm/s
same,IC50,fibroblasts,> 40 µg/mL
